Data reported in paper PMC11331414, “Small molecule telomerase inhibitors are also potent inhibitors of telomeric C-strand synthesis” (RNA, 2024).
Read-outs that look alike come from different tables or passages of the source.

Columns and labels:
9xTEL DNA (TTAGGG)9 = experiment: Circular dichroism thermal melt of 9xTEL DNA; set-up: species or system human; conditions: 10:1 small molecule:DNA
Text: As the native gels were insufficient to identify the types of secondary structures formed by the ssDNA templates, we turned to circular dichroism (CD) for more information. We first examined 9xTEL in NaCl; with positive peaks at 290 and 240 nm and a negative peak at 260 nm, the spectrum matched published spectra for antiparallel GQ formation (Fig. 5A). We also collected spectra of 9xTEL in Na^+/K^+ and in K^+ only, which were both consistent with hybrid GQ (Supplemental Fig. S4A,B). Then we added TMPyP4 to 9xTEL at a ratio of 10:1 in each salt condition. […] We performed thermal melts of 9xTEL in Na^+ with and without TMPyP4, monitoring the signal from the positive peak at 290 nm and the negative peak at 260 nm (Fig. 5B). We found the drug increased the melting temperature (Tm) by about 10°C. Thus, 9xTEL DNA in Na^+ forms an antiparallel GQ that is stabilized by TMPyP4, consistent with previous studies ([Martino et al. 2009]).
(§1) CD samples contained 250 nM DNA in 75 mM NaCl and 50 mM KCl (Na^+/K^+), or 125 mM NaCl, KCl, or LiCl, 0.2× reaction buffer (10 mM Tris-HCl pH 8.0, 0.4 mM MgCl2, 0.2 mM spermidine, and 1 mM β-mercaptoethanol), and 0.02% DMSO; those with inhibitors also included 2.5 µM TMPyP4 or PDS. Baseline control samples consisted of 1× corresponding salt and 0.2× reaction buffer.
(§2) Samples containing DNA, salt, and buffer were placed in 95°C heat block for 10 min and cooled at room temperature for 30 min. PDS, TMPyP4, or DMSO was added and samples were incubated at 30°C for 30 min; 1.8 mL was added to a 10 mm path length cuvette and loaded into a Chirascan Plus Circular Dichroism and Fluorescence Spectrometer (Applied Photophysics). Spectra were collected between 360 and 220 nm with a step size of 1 nm. Three repeats were averaged and smoothed with a second-order polynomial with 10 neighbors on each side (Prism).
Continuous ramped thermal melts were performed at the indicated wavelengths with a 2 nm bandwidth. The temperature was increased from 20°C to 90°C at a rate of 1°C/min with a time-per-point of 12 sec. […]

telomerase = target: T1, telomerase (Homo sapiens, UniProt O14746); experiment: Telomerase inhibition (direct primer extension, 3xTEL primer); assay type: biochemical
T1 construct: 3xFLAG (N); made in house; host or cells: HEK293T
T1 sequence (O14746 whole entry): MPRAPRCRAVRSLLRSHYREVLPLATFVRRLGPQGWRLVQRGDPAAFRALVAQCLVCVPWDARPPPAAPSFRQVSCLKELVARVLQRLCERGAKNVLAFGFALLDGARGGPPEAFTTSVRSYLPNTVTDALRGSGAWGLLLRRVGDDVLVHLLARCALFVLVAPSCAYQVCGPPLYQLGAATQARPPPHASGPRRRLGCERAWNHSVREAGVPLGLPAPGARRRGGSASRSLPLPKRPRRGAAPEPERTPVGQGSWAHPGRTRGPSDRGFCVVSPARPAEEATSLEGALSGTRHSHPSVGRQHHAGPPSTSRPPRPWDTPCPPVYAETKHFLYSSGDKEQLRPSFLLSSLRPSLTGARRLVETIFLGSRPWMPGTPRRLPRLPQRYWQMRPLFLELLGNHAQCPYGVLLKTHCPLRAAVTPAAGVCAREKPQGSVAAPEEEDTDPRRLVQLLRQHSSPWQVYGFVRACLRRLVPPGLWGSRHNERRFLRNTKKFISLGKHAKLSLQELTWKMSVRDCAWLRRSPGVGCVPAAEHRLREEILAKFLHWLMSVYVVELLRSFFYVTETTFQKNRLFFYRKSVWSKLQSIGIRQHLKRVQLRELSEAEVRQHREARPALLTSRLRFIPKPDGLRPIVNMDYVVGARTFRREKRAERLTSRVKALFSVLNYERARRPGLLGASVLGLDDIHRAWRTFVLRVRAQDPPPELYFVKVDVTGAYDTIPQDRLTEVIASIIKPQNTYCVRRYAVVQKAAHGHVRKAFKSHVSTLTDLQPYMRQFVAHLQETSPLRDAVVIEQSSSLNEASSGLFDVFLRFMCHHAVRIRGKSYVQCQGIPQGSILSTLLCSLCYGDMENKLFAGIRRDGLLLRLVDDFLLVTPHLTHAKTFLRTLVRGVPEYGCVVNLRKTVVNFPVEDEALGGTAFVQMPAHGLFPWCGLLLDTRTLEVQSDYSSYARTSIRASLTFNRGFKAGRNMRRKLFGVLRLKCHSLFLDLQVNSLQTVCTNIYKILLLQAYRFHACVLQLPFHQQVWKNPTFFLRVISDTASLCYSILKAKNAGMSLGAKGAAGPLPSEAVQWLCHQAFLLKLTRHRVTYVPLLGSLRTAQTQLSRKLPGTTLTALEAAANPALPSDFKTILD

[1] = target: CST–PP (CST–polymerase α–primase); experiment: CST–PP C-strand synthesis inhibition; assay type: biochemical, human; conditions: for IC50: 25 nM CST–PP, 25 nM template, read-out: IC50synthesis
Procedure: Telomeric C-strand synthesis was performed with CST–PP purified from cultured human cells (HEK293T), a synthetic telomeric DNA template (9xTEL, (TTAGGG)9), ribonucleotides to allow primase activity, and deoxynucleotides including α-^32P-dATP to monitor polymerase α extension. To test whether TMPyP4 would inhibit DNA synthesis by CST–PP, we preincubated 25 nM 9xTEL with increasing concentrations of the drug, then added 25 nM CST–PP and nucleotides and observed C-strand synthesis by gel electrophoresis (Fig. 1A, left). To serve as a size marker and recovery control, a small fraction of the template (T) was radiolabeled. The expected synthesis products were observed, all smaller than the 54-nt template (Supplemental Fig. S2A). The limited extension reflects the limited processivity of CST–PP, and the 6-nt ladder of products is due to multiple initiation sites on the 6-nt repeat template ([Zaug et al. 2022]).
(§3) CST–PP was purified from HEK 293T/17 cells (CRL-11268, ATCC), as previously described ([Zaug et al. 2021], [2022]). Briefly, cells were transfected with 3xFLAG-CTC1, Myc-STN1, and HA-TEN1 at a ratio of 1:1:1, expanded and grown for 48 h, and collected. The complex was purified by successive anti-FLAG and anti-HA immunoprecipitation. Endogenous Polα–primase copurifies with CST ([Zaug et al. 2022]). The purity of the complex was verified by silver staining and concentrations were determined by western blot analysis ([Zaug et al. 2022]).
Reactions (10 μL) contained 25 nM CST–PP and 25 nM single-stranded template DNA in 1× reaction buffer (50 mM Tris-HCl pH 8.0, 2 mM MgCl2, 1 mM spermidine, and 5 mM β-mercaptoethanol), 1× Na^+/K^+ (75 mM KCl and 50 mM NaCl) or 1× Li^+ (125 mM LiCl) salts, rNTPs (0.2 mM each CTP, UTP, ATP), and dNTPs (0.5 mM dCTP, 0.5 mM dTTP, 0.33 μM [α-^32P]dATP [300 Ci mmol^–1], 0.29 μM unlabeled dATP), the indicated concentrations of TMPyP4 or PDS, and 0.2% DMSO.
DNA templates and small molecule dilutions were prepared fresh immediately before each use. A small proportion of the template DNA was 5′ radiolabeled (typically ∼0.1–0.5 nM, 5000 counts per minute per reaction) to serve as a recovery and loading control and internal size marker. CST–PP generated more products with 9xnoGG in Na^+/K^+ than in other conditions, so in that condition, 5× more radioactive template was used (keeping total DNA at 25 nM) so that the control signal was not overwhelmed by the product signal. DNA templates in buffer and designated salt were placed in 95°C heat block for 5 min and cooled at room temperature for 30 min. Dilutions of PDS or TMPyP4 in 1% DMSO (or 1% DMSO only for no inhibitor condition) were added (final 0.2% DMSO), and mixtures were incubated in 30°C water bath for 30 min. CST–PP was added and mixtures were returned to water bath for 30 min. NTPs were added and the reaction proceeded at 30°C for 1 h; 50 µL stop mix (3.6 M ammonium acetate and 0.2 mg mL^−1 glycogen) was then added.
Quenched reactions were cleaned up using the Oligo Clean & Concentrator kit (D4060, Zymo) and eluted in water. An equivalent volume of 2× loading dye (95% formamide, 20 mM EDTA, and 0.05% each bromophenol blue and xylene cyanol) was added. Samples were boiled for 5 min, then loaded on a 10% acrylamide, 7 M urea, and 1× TBE gel. Molecular weight ladders were generated by telomerase as above (no small molecule). Gels were run at 30 W until the bromophenol blue was ∼2 in from the bottom (∼1–1.5 h) and dried on Whatman 3 mm paper at 80°C under a vacuum for 15–30 min. Gels were then exposed to a phosphorimager screen, which was imaged with Amersham Typhoon scanner 5 and analyzed using ImageQuant. The intensity of synthesis was normalized to the intensity of the loading control in the same lane. Relative synthesis was calculated by dividing normalized synthesis at each inhibitor concentration by the normalized synthesis without inhibitor. […]

[2] = target: CST–PP (CST–polymerase α–primase); experiment: CST–PP binding to template DNA (EMSA) inhibition; set-up: species or system human; conditions: 25 nM CST–PP, 25 nM template, read-out: IC50binding
Procedure: To test directly if TMPyP4 inhibited CST–PP by preventing association with the templates, we next measured the effect of the drug on the proportion of DNA bound by CST–PP. We used the same conditions as in the synthesis reaction and observed that the DNA was about half bound in the absence of an inhibitor. We prepared DNA templates with an increasing concentration of TMPyP4 as before, then incubated with CST–PP and analyzed by EMSA (electrophoretic mobility shift assay) (Fig. 2A). By normalizing the fraction of DNA bound at each concentration of inhibitor to fraction bound without drug, we determined IC50 values for binding (IC50binding) in the two salts for both 9xTEL and 9xnoGG (Fig. 2B; Table 1).
as §3
Binding reactions were prepared identically to synthesis reactions, except glycerol (10% final) was added in place of the NTP mix. DNA and small molecules were incubated for 30 min at 30°C, then CST was added and incubation continued for another hour. Samples were loaded onto a 1× TBE 0.7% agarose gel and run at 70 V for 75 min at 4°C. The gels were placed on Hybond N^+ atop Whatman 3 mm paper and dried under a vacuum at 80°C for 1 h. They were then exposed to a phosphorimager screen, which was imaged using an Amersham Typhoon scanner 5. Binding was analyzed using ImageQuant; fraction bound was determined by dividing the number of counts in the bound band by the total number of counts in the lane, not including the well. Relative binding was calculated by dividing the fraction bound at each inhibitor concentration by the fraction bound without inhibitor. Results were plotted and analyzed as above.

9xnoGG DNA (TGAGTG)9 = experiment: Circular dichroism thermal melt of 9xnoGG DNA; conditions: 10:1 small molecule:DNA; for thermal melt transition temperature: CD at 260 and 240 nm
Procedure: We performed thermal melts of 9xnoGG in Na^+ and Li^+ and monitored the signal at the predominant peaks (positive at 260 nm and negative at 240 nm). The curves were biphasic, with an initial sharp transition at ∼26°C and a minor, broader transition ∼40°C (Fig. 5E). We wondered whether the first transition might represent the dissociation of a dimeric species and collected a full CD spectrum of 9xnoGG at both 12°C and 30°C. While the spectra were very similar, the amplitudes of the positive and negative peaks at 12°C were nearly twice that of the same sample at 30°C (Supplemental Fig. S5B). CD peak attenuation is consistent with a dimer-to-monomer transition ([Kypr et al. 2009]; [Vorlíčková et al. 2012]).
as §1, §2
Continuous ramped thermal melts were performed at the indicated wavelengths with a 2 nm bandwidth. The temperature was increased from 20°C to 90°C at a rate of 1°C/min with a time-per-point of 12 sec. Positive peaks were normalized to 1 at the lowest temperature, and negative peaks were normalized to −1 at the lowest temperature. Spectra were smoothed as above.

Row | SMILES | stabilization in full spectrum thermal melt (9xTEL DNA (TTAGGG)9; 9xTEL in Li+) | stabilization of GQ secondary structure in thermal melt (9xTEL DNA (TTAGGG)9; 9xTEL in NaCl, complex could not be entirely melted, no Tm calculated) | IC50 (telomerase; 2 nM telomerase, 50 nM 3xTEL DNA primer, 75 mM KCl/50 mM NaCl, 30°C, 1 h, read-out: half maximal inhibitory concentration (IC50) of telomerase) [nM] | IC50 ([1]; template 9xTEL, Li+) [nM] | IC50 ([1]; template 9xTEL, Na+/K+) [nM] | IC50 ([1]; template 9xnoGG, Li+) [nM] | IC50 ([1]; template 9xnoGG, Na+/K+) [nM] | IC50 ([2]; template 9xTEL, Li+) [nM] | IC50 ([2]; template 9xTEL, Na+/K+) [nM] | IC50 ([2]; template 9xnoGG, Li+) [nM] | IC50 ([2]; template 9xnoGG, Na+/K+) [nM] | increase of melting temperature (Tm) (9xTEL DNA (TTAGGG)9; 9xTEL in Na+, CD at 290 and 260 nm) | thermal melt transition temperature (9xnoGG DNA (TGAGTG)9; 9xnoGG in Li+) [°C] | thermal melt transition temperature (9xnoGG DNA (TGAGTG)9; 9xnoGG in Na+) [°C] | increase of melting temperature of dimeric 9xnoGG (9xnoGG DNA (TGAGTG)9; 9xnoGG) | IC50 (telomerase) [nM] | IC50synthesis in Li+ relative to Na+/K+ (fold higher) ([1]; template 9xTEL)
1 | NCCOc1cc(C(=O)Nc2cc(OCCN)c3ccccc3n2)nc(C(=O)Nc2cc(OCCN)c3ccccc3n2)c1 [PDS, pyridostatin] | considerable stabilization | substantial stabilization | 520 | 110 | 140 | 180 | 200 | 140 | 110 | 160 | 120 |  |  |  |  |  | 
2 | C[n+]1ccc(-c2c3nc(c(-c4cc[n+](C)cc4)c4ccc([nH]4)c(-c4cc[n+](C)cc4)c4ccc([nH]4)c(-c4cc[n+](C)cc4)c4nc2C=C4)C=C3)cc1 [TMPyP4] |  |  |  | 1000 | 250 | 310 | 220 | 840 | 260 | 200 | 190 | about 10 °C | 52 | 52 | over 20 °C | 6400 | about fourfold
